Among the test systems are OVCAR-4 ovarian; SK-MEL-2 melanoma; SR leukemia; OVCAR-5 ovarian; SK-OV-3 ovarian; IGROV1 ovarian; OVCAR-3 ovarian; UACC-257 melanoma; SF-539 CNS; OVCAR-8 ovarian.
Holding throughout (assay): NCI anticancer screen, dose series, 48 h

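Assay format: 96-well plates, 48-hour exposure. At the GI50, growth is halved. TGI: concentration producing complete growth inhibition.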

`O=c1[nH]c(SCc2c(Cl)c(Cl)c(Cl)c(Cl)c2Cl)nc(=S)[nH]1`: the TGI in the assay with OVCAR-4 ovarian is 54.8 µM; with SK-MEL-2 melanoma, greater than 100 µM; with SR leukemia, 0.516 µM; in the assay with OVCAR-5 ovarian it was greater than 100 µM; in the assay on SK-OV-3 ovarian, greater than 100 µM; in the assay with IGROV1 ovarian, greater than 100 µM. Further, the TGI in the assay with OVCAR-3 ovarian was 31 µM; in the assay with UACC-257 melanoma, greater than 100 µM; in the assay on SF-539 CNS, greater than 100 µM; with OVCAR-8 ovarian, greater than 100 µM.
Consider `COc1cccc(C2C3=C(COC3=O)N(CCO)c3cc4c(cc32)OCCO4)c1` (stereo not given), for which the GI50 was 472 nM in the assay with OVCAR-4 ovarian; 0.0396 µM in the assay with SK-MEL-2 melanoma; 27.1 nM in the assay with SR leukemia; 427 nM with OVCAR-5 ovarian; 128 nM in the assay on SK-OV-3 ovarian; 95.9 nM in the assay on IGROV1 ovarian. For the same compound, the GI50 with OVCAR-3 ovarian is 87.8 nM; in the assay with UACC-257 melanoma, 0.0467 µM; in the assay on SF-539 CNS, 124 nM; in the assay with OVCAR-8 ovarian it was 0.22 µM. In addition, the TGI in the assay with OVCAR-4 ovarian was greater than 50 µM; in the assay with SK-MEL-2 melanoma it was 0.219 µM; in the assay on OVCAR-5 ovarian, greater than 50 µM; in the assay on SK-OV-3 ovarian it was 4.28 µM; with IGROV1 ovarian, 0.906 µM; with OVCAR-3 ovarian, 0.254 µM. In addition, the TGI in the assay on UACC-257 melanoma and in the assay on OVCAR-8 ovarian was greater than 50 µM in each case.
On to `O=C(O)CCCCn1cnc2c(=S)nc[nH]c21`, for which the TGI in the assay on OVCAR-4 ovarian, in the assay with SK-MEL-2 melanoma, in the assay with SR leukemia, in the assay on OVCAR-5 ovarian, with SK-OV-3 ovarian and in the assay on IGROV1 ovarian was greater than 100 µM throughout. Besides, the TGI in the assay on OVCAR-3 ovarian, with UACC-257 melanoma, in the assay with SF-539 CNS and in the assay with OVCAR-8 ovarian was greater than 100 µM each time.
As to `Cc1cc(-c2nc(-c3ccc(OC(F)(F)F)cc3)no2)nn1Cc1ccnc(N2CCN(C3CC3)CC2)c1`, the GI50 is less than 10 nM in the assay with OVCAR-4 ovarian; greater than 42.1 µM with SK-MEL-2 melanoma; greater than 37500 nM with OVCAR-5 ovarian; greater than 49600 nM with SK-OV-3 ovarian; greater than 50000 nM in the assay with IGROV1 ovarian; 10300 nM in the assay with OVCAR-3 ovarian. Further, the figures for the GI50 in the assay on UACC-257 melanoma, with SF-539 CNS and with OVCAR-8 ovarian were 2.84 µM, greater than 33000 nM and greater than 44.4 µM, respectively. The TGI is greater than 100 µM in the assay with OVCAR-4 ovarian; greater than 100 µM in the assay on SK-MEL-2 melanoma; greater than 74 µM in the assay on SR leukemia; greater than 100 µM in the assay with OVCAR-5 ovarian; greater than 100 µM in the assay on SK-OV-3 ovarian; greater than 100 µM in the assay on IGROV1 ovarian. The TGI is greater than 100 µM in the assay with OVCAR-3 ovarian, greater than 55.4 µM with UACC-257 melanoma, greater than 63.8 µM in the assay with SF-539 CNS and greater than 100 µM in the assay on OVCAR-8 ovarian.
With `CCC[CH2][Sn]([CH2]CCC)([O]C(=O)c1nccnc1N)[O]C(=O)c1nccnc1N`, the GI50 is 2020 nM in the assay on OVCAR-4 ovarian; 0.424 µM with SK-MEL-2 melanoma; 294 nM in the assay on SR leukemia; 1720 nM in the assay on OVCAR-5 ovarian; 2060 nM in the assay on SK-OV-3 ovarian; 1330 nM in the assay on IGROV1 ovarian. For the same compound, the GI50 with OVCAR-3 ovarian was 1210 nM; in the assay on UACC-257 melanoma, 1.03 µM; in the assay with SF-539 CNS, 1090 nM; in the assay with OVCAR-8 ovarian, 1.21 µM. Moreover, the TGI in the assay with OVCAR-4 ovarian was found to be 3.49 µM; in the assay on SK-MEL-2 melanoma, 1.62 µM; in the assay with SR leukemia, 2.35 µM; in the assay with OVCAR-5 ovarian it was 3.1 µM; in the assay with SK-OV-3 ovarian, 3.63 µM; in the assay on IGROV1 ovarian, 2.68 µM. Also, the TGI in the assay on OVCAR-3 ovarian came out at 2.45 µM; in the assay with UACC-257 melanoma, 2.23 µM; with SF-539 CNS, 2.3 µM; in the assay with OVCAR-8 ovarian it was 2.45 µM.
Take `CN(C)CCN=Cc1c2ccccc2c(=O)n2c1oc1ccccc12`: the GI50 was 18400 nM in the assay on OVCAR-4 ovarian; 16.6 µM in the assay on SK-MEL-2 melanoma; 3700 nM in the assay on SR leukemia; 15700 nM with OVCAR-5 ovarian; 8440 nM in the assay on SK-OV-3 ovarian; 10600 nM with IGROV1 ovarian. In addition, the GI50 in the assay on OVCAR-3 ovarian is 11700 nM; in the assay with UACC-257 melanoma, 14.2 µM; with SF-539 CNS, 2960 nM; with OVCAR-8 ovarian, 5.89 µM. Further, the TGI was 51.6 µM in the assay with OVCAR-4 ovarian; 48.2 µM in the assay with SK-MEL-2 melanoma; greater than 100 µM in the assay with SR leukemia; 30.5 µM with OVCAR-5 ovarian; 24.3 µM in the assay with SK-OV-3 ovarian; 27.6 µM in the assay on IGROV1 ovarian. Further, the TGI in the assay on OVCAR-3 ovarian was determined as 24 µM; with UACC-257 melanoma, 30.5 µM; with SF-539 CNS, 8.81 µM; with OVCAR-8 ovarian, 21.5 µM.
As to `COc1ccc(/C=C\c2cc(OC)c(OC)c(OC)c2)cc1OC(=O)c1cccc(Cn2cc(CCOC(=O)c3cccc(Cn4nnc5c4C(=O)c4ccccc4C5=O)c3)nn2)c1`, the GI50 in the assay with OVCAR-4 ovarian is 40.3 nM; in the assay on SR leukemia, less than 10 nM; with OVCAR-5 ovarian it was 54.2 nM; in the assay on SK-OV-3 ovarian, 2730 nM; in the assay with IGROV1 ovarian it was 25.2 nM; in the assay with OVCAR-3 ovarian, less than 10 nM. Moreover, the GI50 with UACC-257 melanoma is 22.9 µM; in the assay with SF-539 CNS, less than 10 nM; in the assay on OVCAR-8 ovarian it was less than 0.01 µM. The TGI in the assay with OVCAR-4 ovarian is greater than 100 µM; in the assay on SK-MEL-2 melanoma, 33.1 µM; with SR leukemia it was greater than 100 µM; in the assay with OVCAR-5 ovarian, greater than 100 µM; with SK-OV-3 ovarian, 46.7 µM; in the assay with IGROV1 ovarian, 26.4 µM. Moreover, the TGI was greater than 100 µM in the assay with UACC-257 melanoma, 0.134 µM in the assay with SF-539 CNS and greater than 44.8 µM with OVCAR-8 ovarian.
For `COC(=O)[C@H](CC(C)C)NC(=O)NC(=O)NC(=O)CI`, the GI50 in the assay on OVCAR-4 ovarian is 1880 nM; with SK-MEL-2 melanoma, 13.7 µM; with SR leukemia it was 1250 nM; in the assay on OVCAR-5 ovarian, 14300 nM; in the assay with SK-OV-3 ovarian it was 17600 nM; with IGROV1 ovarian, 2060 nM. In addition, the GI50 is 1990 nM in the assay on OVCAR-3 ovarian, 7.76 µM in the assay on UACC-257 melanoma, 3160 nM in the assay with SF-539 CNS and 5.69 µM with OVCAR-8 ovarian. Besides, the TGI worked out at 4.26 µM with OVCAR-4 ovarian; 27.9 µM in the assay on SK-MEL-2 melanoma; 4.37 µM in the assay on SR leukemia; 30 µM in the assay on OVCAR-5 ovarian; 31.8 µM in the assay on SK-OV-3 ovarian; 4.64 µM in the assay with IGROV1 ovarian. Besides, the TGI with OVCAR-3 ovarian is 3.51 µM; in the assay on UACC-257 melanoma, 20.3 µM; in the assay on SF-539 CNS, 12.2 µM; in the assay with OVCAR-8 ovarian, 18.4 µM.

Values taken from PubChem BioAssay (NCI).
